Literature values in patent US20220251564A1, “p16INK4a INHIBITOR FOR PREVENTING OR TREATING HUNTINGTON'S DISEASE” (SORBONNE UNIVERSITE, priority 2019, published 2022).

Tested on: neurons
Conditions: in vitro

COc1cc([C@@H]2c3cc4c(cc3[C@@H](O[C@@H]3O[C@@H]5CO[C@@H](C)O[C@H]5[C@H](O)[C@H]3O)[C@H]3COC(=O)[C@H]23)OCO4)cc(OC)c1O [Etoposide]
activation of neurons: activate neurons in vitro
